These are literature values, as cited in patent US20150272967A1, “EXTREMELY HIGH LOADING DOSE” (priority 2013, published 2015).

One data set deals with prostate cancer patients. The following applies: dose significantly lower than that of the invention.
The test system of a further data set is breast cancer patients. The note with it: modest low doses.

For the molecule `C=C1CC[C@H](O)C/C1=C/C=C1\CCC[C@]2(C)[C@@H]([C@H](C)CCCC(C)C)CC[C@@H]12` [Vitamin D3, cholecalciferol], the “patients showing improvement (significant decrease in the number of positive cancer biopsy samples)” value in the data set with prostate cancer patients is reported as 55%.
Vitamin D: in the data set on breast cancer patients (25.5 without supplementation), the disease free survival was 32.6 months. Further, in the data set with breast cancer patients (32.8 without supplementation), the median overall survival was 43.8 months.
